Legend:
Type in all cases: in vivo
[1] = system: Digitaria sanguinalis; assay: Post-emergence test experiment, Digitaria sanguinalis; settings: 1000 g a.i./ha, 3 weeks in greenhouse, fresh weight inhibition
Procedure, shortened: (§1)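 Greenhouse post-emergence spray at 2-3 leaf stage (2 wk after sowing); acetone/tween-80 formulation, methyl oleate EC synergist 1.5 L/ha, water-diluted. Plants held 3 wk, then fresh weight inhibition rate read.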

[2] = system: Echinochloa crusgalli; assay: Post-emergence test experiment, Echinochloa crusgalli; settings: 1000 g a.i./ha, 3 weeks in greenhouse, fresh weight inhibition
Procedure, shortened: as §1

[3] = system: Monocotyledonous and dicotyledonous weed seeds and main crop seeds; assay: Post-emergence test experiment, other weeds and crops (Table 4, 1000 g a.i./ha); settings: 3 weeks in greenhouse, fresh weight inhibition
Procedure, shortened: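 Growth inhibition is scored on fresh weight. Spray solutions were made in acetone with tween-80, diluted in water, plus 1.5 L/ha methyl oleate emulsible concentrate. Plants from greenhouse-grown weed and crop seeds were treated post-emergence at 2-3 leaves, 2 weeks after sowing.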

Row | Compound | Activity level (growth inhibition rate), Digitaria sanguinalis [1] | Activity level (growth inhibition rate), Echinochloa crusgalli [2] | Activity level (growth inhibition rate), Abutilon theophrasti Medic. [3] | Activity level (growth inhibition rate), Galium aparine [3] | Activity level (growth inhibition rate), Monochoria Vaginalis [3]
1 | C[C@@H](Oc1nc(F)c(Cl)c(N)c1Cl)C(=O)OCc1cccc2ccccc12 [Compound 2-341] | 5 (Level 5: the growth inhibition rate is greater than 85%) | 5 (Level 5: the growth inhibition rate is greater than 85%) | 5 (Level 5: the growth inhibition rate is greater than 85%) | 5 (Level 5: the growth inhibition rate is greater than 85%) | 5 (Level 5: the growth inhibition rate is greater than 85%)
2 | C[C@@H](Oc1nc(F)c(Cl)c(N)c1Cl)C(=O)OCc1ccccn1 [Compound 2-342] | 5 (Level 5: the growth inhibition rate is greater than 85%) | 5 (Level 5: the growth inhibition rate is greater than 85%) | 5 (Level 5: the growth inhibition rate is greater than 85%) | 5 (Level 5: the growth inhibition rate is greater than 85%) | 5 (Level 5: the growth inhibition rate is greater than 85%)
3 | C[C@@H](Oc1nc(F)c(Cl)c(N)c1Cl)C(=O)OCc1ccncc1 [Compound 2-344] | 5 (Level 5: the growth inhibition rate is greater than 85%) | 5 (Level 5: the growth inhibition rate is greater than 85%) | 5 (Level 5: the growth inhibition rate is greater than 85%) | 5 (Level 5: the growth inhibition rate is greater than 85%) | 5 (Level 5: the growth inhibition rate is greater than 85%)
4 | C[C@@H](Oc1nc(F)c(Cl)c(N)c1Cl)C(=O)SCc1ccncc1 [Compound 2-345] | 5 (Level 5: the growth inhibition rate is greater than 85%) | 5 (Level 5: the growth inhibition rate is greater than 85%) | 5 (Level 5: the growth inhibition rate is greater than 85%) | 5 (Level 5: the growth inhibition rate is greater than 85%) | 5 (Level 5: the growth inhibition rate is greater than 85%)
5 | C[C@@H](Oc1nc(F)c(Cl)c(N)c1Cl)C(=O)OCc1cccnc1 [Compound 2-346] | 5 (Level 5: the growth inhibition rate is greater than 85%) | 5 (Level 5: the growth inhibition rate is greater than 85%) | 5 (Level 5: the growth inhibition rate is greater than 85%) | 5 (Level 5: the growth inhibition rate is greater than 85%) | 5 (Level 5: the growth inhibition rate is greater than 85%)
6 | C[C@@H](Oc1nc(F)c(Cl)c(N)c1Cl)C(=O)SCc1cccnc1 [Compound 2-347] | 5 (Level 5: the growth inhibition rate is greater than 85%) | 5 (Level 5: the growth inhibition rate is greater than 85%) | 5 (Level 5: the growth inhibition rate is greater than 85%) | 5 (Level 5: the growth inhibition rate is greater than 85%) | 5 (Level 5: the growth inhibition rate is greater than 85%)
7 | C[C@@H](Oc1nc(F)c(Cl)c(N)c1Cl)C(=O)OCc1ccoc1 [Compound 2-349] | 5 (Level 5: the growth inhibition rate is greater than 85%) | 5 (Level 5: the growth inhibition rate is greater than 85%) | 5 (Level 5: the growth inhibition rate is greater than 85%) | 5 (Level 5: the growth inhibition rate is greater than 85%) | 5 (Level 5: the growth inhibition rate is greater than 85%)
8 | C[C@@H](Oc1nc(F)c(Cl)c(N)c1Cl)C(=O)OCc1cccs1 [Compound 2-350] | 5 (Level 5: the growth inhibition rate is greater than 85%) | 5 (Level 5: the growth inhibition rate is greater than 85%) | 5 (Level 5: the growth inhibition rate is greater than 85%) | 5 (Level 5: the growth inhibition rate is greater than 85%) | 5 (Level 5: the growth inhibition rate is greater than 85%)
9 | C[C@@H](Oc1nc(F)c(Cl)c(N)c1Cl)C(=O)OCc1ccsc1 [Compound 2-351] | 5 (Level 5: the growth inhibition rate is greater than 85%) | 5 (Level 5: the growth inhibition rate is greater than 85%) | 5 (Level 5: the growth inhibition rate is greater than 85%) | 5 (Level 5: the growth inhibition rate is greater than 85%) | 5 (Level 5: the growth inhibition rate is greater than 85%)
10 | Cc1cc(OC(=O)[C@@H](C)Oc2nc(F)c(Cl)c(N)c2Cl)n(C)n1 [Compound 2-352] | 5 (Level 5: the growth inhibition rate is greater than 85%) | 5 (Level 5: the growth inhibition rate is greater than 85%) | 5 (Level 5: the growth inhibition rate is greater than 85%) | 5 (Level 5: the growth inhibition rate is greater than 85%) | 5 (Level 5: the growth inhibition rate is greater than 85%)
11 | C[C@@H](Oc1nc(F)c(Cl)c(N)c1Cl)C(=O)OCc1ccnn1C [Compound 2-353] | 5 (Level 5: the growth inhibition rate is greater than 85%) | 5 (Level 5: the growth inhibition rate is greater than 85%) | 5 (Level 5: the growth inhibition rate is greater than 85%) | 5 (Level 5: the growth inhibition rate is greater than 85%) | 5 (Level 5: the growth inhibition rate is greater than 85%)
12 | C[C@@H](Oc1nc(F)c(Cl)c(N)c1Cl)C(=O)OCc1cnn(C)c1 [Compound 2-354] | 5 (Level 5: the growth inhibition rate is greater than 85%) | 5 (Level 5: the growth inhibition rate is greater than 85%) | 5 (Level 5: the growth inhibition rate is greater than 85%) | 5 (Level 5: the growth inhibition rate is greater than 85%) | 5 (Level 5: the growth inhibition rate is greater than 85%)
13 | Cc1ccccc1OC(=O)[C@@H](C)Oc1nc(F)c(Cl)c(N)c1Cl [Compound 2-355] | 5 (Level 5: the growth inhibition rate is greater than 85%) | 5 (Level 5: the growth inhibition rate is greater than 85%) | 5 (Level 5: the growth inhibition rate is greater than 85%) | 5 (Level 5: the growth inhibition rate is greater than 85%) | 5 (Level 5: the growth inhibition rate is greater than 85%)
14 | CC(Oc1nc(F)c(Cl)c(N)c1Cl)C(=O)Sc1cccc(Cl)c1 (centres unmarked) [Compound 2-357] | 5 (Level 5: the growth inhibition rate is greater than 85%) | 5 (Level 5: the growth inhibition rate is greater than 85%) | 5 (Level 5: the growth inhibition rate is greater than 85%) | 5 (Level 5: the growth inhibition rate is greater than 85%) | 5 (Level 5: the growth inhibition rate is greater than 85%)
15 | COc1ccc(SC(=O)C(C)Oc2nc(F)c(Cl)c(N)c2Cl)cc1 (centres unmarked) [Compound 2-358] | 5 (Level 5: the growth inhibition rate is greater than 85%) | 5 (Level 5: the growth inhibition rate is greater than 85%) | 5 (Level 5: the growth inhibition rate is greater than 85%) | 5 (Level 5: the growth inhibition rate is greater than 85%) | 5 (Level 5: the growth inhibition rate is greater than 85%)
16 | CC(Oc1nc(F)c(Cl)c(N)c1Cl)C(=O)Sc1cccc(C(C)C)c1 (centres unmarked) [Compound 2-360] | 5 (Level 5: the growth inhibition rate is greater than 85%) | 5 (Level 5: the growth inhibition rate is greater than 85%) | 5 (Level 5: the growth inhibition rate is greater than 85%) | 5 (Level 5: the growth inhibition rate is greater than 85%) | 5 (Level 5: the growth inhibition rate is greater than 85%)

Source: patent US12304890B2, “R-type pyridyloxycarboxylic acid, salt and ester derivative thereof, and preparation method therefor, and herbicidal composition and application thereof” (Qingdao Kingagroot Chemical Compound Co., Ltd., priority 2018, dated 2025)
